# Measurements published in publication PMC10208580 (Science Advances, 2023).
# Where two headings read alike, the source gives them in different places. Bridge positions count the residues as written; N and C are the ends. Square brackets hold non-standard residues; d marks the D form. Ends that are not written are not given here. Peptide text beside a SMILES is read from it. pT = C[C@@H](OP(=O)(O)O)[C@H](N)C(=O)O
# How the values were obtained:
# [1] = molecular target: T1, RyR1 (Oryctolagus cuniculus, UniProt P11716); test: [3H]ryanodine binding to skeletal muscle heavy SR vesicles; assay type: biochemical, rabbit; details: for EC50: SEM
# T1 construct: from tissue; host or cells: rabbit skeletal muscle heavy SR vesicles
# T1 sequence (P11716 whole entry): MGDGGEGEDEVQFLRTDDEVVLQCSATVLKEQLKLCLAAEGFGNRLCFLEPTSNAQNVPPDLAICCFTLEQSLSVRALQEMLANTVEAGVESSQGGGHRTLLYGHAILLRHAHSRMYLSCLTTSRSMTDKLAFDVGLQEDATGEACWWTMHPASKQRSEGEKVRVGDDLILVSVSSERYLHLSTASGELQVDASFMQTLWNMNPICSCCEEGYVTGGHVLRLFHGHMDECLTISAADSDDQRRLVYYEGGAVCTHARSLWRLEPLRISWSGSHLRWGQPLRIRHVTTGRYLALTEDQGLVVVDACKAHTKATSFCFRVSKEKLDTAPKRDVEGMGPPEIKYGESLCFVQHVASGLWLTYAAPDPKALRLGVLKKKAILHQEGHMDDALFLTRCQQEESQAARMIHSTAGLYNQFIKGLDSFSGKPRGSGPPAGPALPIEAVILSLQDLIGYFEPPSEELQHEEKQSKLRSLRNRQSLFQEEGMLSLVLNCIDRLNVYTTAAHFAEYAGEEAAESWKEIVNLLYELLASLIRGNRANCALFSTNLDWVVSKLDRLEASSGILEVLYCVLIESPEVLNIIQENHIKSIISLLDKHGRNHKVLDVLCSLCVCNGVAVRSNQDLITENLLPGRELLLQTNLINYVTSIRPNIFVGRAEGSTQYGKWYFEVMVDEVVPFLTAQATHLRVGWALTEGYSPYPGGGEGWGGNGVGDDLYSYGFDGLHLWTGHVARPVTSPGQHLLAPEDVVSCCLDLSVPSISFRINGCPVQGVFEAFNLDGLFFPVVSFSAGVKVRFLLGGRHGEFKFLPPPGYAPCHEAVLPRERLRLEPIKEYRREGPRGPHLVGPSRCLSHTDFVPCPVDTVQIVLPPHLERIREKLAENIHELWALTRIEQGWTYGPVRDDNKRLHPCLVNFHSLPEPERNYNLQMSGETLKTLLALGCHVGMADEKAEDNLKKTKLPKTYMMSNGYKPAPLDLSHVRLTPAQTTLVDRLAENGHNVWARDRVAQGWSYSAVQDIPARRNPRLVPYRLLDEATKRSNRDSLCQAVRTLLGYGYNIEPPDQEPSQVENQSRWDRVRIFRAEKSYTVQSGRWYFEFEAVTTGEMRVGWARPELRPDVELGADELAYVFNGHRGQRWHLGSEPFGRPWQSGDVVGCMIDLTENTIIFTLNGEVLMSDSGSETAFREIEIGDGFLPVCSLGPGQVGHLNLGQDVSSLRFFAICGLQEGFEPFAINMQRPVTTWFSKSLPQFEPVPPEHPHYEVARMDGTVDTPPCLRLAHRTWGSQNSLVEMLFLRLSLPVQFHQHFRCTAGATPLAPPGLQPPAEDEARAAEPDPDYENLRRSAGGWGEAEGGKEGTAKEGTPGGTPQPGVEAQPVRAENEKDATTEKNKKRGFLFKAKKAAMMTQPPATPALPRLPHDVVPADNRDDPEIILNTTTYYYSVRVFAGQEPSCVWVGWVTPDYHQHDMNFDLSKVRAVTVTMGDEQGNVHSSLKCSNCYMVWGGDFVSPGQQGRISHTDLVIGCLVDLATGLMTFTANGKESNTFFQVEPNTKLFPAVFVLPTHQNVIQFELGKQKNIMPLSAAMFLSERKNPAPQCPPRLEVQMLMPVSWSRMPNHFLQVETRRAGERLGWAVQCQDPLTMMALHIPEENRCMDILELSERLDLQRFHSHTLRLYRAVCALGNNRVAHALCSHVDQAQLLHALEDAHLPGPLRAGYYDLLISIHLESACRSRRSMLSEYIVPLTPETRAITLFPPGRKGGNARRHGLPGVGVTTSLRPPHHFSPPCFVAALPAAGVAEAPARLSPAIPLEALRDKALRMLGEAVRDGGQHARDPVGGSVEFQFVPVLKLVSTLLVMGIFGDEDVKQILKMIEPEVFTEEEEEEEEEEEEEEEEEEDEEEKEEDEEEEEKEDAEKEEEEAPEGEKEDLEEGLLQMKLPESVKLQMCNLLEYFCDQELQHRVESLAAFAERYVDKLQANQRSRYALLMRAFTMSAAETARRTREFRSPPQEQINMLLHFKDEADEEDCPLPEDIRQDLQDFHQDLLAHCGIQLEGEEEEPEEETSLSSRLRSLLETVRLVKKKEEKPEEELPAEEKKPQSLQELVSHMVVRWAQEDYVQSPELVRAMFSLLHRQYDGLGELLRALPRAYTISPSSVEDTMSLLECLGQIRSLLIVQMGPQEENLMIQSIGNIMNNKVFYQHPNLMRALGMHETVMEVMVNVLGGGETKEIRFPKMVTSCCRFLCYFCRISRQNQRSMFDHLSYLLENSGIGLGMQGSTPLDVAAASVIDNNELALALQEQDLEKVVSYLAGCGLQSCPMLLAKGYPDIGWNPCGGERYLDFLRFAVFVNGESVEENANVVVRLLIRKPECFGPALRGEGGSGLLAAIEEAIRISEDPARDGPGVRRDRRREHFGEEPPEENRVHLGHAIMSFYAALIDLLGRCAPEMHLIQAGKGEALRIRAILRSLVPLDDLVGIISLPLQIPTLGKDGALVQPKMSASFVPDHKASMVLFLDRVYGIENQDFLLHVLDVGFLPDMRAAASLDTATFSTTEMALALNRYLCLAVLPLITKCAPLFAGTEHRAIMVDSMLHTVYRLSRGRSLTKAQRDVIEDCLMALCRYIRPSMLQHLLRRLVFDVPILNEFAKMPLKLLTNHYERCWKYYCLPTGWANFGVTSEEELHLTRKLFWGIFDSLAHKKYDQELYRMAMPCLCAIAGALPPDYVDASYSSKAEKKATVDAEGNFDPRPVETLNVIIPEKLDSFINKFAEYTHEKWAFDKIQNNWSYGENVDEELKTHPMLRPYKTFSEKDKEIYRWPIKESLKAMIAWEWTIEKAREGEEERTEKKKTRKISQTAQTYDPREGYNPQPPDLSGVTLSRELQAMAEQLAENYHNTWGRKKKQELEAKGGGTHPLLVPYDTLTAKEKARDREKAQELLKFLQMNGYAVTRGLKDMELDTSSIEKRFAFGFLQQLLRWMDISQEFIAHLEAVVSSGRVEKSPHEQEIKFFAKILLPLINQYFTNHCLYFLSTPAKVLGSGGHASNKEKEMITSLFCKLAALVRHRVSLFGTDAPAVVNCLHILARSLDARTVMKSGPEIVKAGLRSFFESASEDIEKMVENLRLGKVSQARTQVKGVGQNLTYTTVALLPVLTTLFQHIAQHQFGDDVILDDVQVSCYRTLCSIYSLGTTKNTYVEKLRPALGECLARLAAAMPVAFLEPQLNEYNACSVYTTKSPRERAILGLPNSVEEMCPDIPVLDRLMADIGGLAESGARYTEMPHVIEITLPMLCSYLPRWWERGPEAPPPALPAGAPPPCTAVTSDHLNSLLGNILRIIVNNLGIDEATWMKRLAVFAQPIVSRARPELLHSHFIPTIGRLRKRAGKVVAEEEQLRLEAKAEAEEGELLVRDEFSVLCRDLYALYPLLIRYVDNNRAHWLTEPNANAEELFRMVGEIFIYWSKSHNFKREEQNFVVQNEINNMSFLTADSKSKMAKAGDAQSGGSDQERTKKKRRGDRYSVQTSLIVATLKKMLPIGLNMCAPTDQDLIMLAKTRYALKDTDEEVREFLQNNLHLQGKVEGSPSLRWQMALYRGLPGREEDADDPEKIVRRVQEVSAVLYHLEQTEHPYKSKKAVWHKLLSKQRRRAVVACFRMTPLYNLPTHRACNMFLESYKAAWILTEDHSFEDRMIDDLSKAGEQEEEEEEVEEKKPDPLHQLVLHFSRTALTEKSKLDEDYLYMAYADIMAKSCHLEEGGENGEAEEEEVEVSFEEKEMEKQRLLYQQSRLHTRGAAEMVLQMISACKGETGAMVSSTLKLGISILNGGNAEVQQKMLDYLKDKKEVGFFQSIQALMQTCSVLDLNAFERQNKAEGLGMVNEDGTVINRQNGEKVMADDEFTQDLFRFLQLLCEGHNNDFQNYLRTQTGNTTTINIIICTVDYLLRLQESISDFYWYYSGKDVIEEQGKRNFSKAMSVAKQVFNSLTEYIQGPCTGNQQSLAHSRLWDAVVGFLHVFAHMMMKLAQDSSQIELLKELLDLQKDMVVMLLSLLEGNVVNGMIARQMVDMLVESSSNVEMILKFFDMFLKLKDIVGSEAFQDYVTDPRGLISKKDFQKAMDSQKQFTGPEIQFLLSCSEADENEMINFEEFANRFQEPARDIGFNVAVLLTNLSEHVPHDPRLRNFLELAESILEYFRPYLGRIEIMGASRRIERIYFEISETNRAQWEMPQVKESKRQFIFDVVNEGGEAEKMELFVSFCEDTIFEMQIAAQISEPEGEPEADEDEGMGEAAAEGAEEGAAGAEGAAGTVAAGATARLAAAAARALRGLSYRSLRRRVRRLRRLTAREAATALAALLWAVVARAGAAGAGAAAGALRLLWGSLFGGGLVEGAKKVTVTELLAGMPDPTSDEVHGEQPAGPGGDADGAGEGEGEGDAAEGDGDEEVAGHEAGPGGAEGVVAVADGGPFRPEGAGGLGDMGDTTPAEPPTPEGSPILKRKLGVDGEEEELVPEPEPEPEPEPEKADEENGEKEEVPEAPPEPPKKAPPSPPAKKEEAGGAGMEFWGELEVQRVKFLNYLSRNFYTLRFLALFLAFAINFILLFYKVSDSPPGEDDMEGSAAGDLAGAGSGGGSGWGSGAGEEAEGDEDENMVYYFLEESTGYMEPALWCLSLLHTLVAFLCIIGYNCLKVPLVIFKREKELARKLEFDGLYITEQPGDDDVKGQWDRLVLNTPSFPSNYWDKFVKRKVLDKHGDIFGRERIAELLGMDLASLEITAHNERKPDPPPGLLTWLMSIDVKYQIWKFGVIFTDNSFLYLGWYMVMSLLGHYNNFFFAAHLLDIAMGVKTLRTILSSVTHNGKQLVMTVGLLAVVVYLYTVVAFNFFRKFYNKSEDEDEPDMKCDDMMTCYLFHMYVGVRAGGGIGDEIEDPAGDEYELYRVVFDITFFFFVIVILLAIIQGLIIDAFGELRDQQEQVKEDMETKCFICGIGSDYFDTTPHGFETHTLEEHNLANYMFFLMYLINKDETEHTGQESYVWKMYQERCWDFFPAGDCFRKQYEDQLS
# [2] = molecular target: rabbit RyR1 (Ryanodine Receptor 1), purified from skeletal muscle (rabbit) (UniProt P11716)
# rabbit RyR1 (Ryanodine Receptor 1), purified from skeletal muscle (rabbit), sequence (P11716 whole entry): as above
# [3] = test system: RyR1; details: cited from earlier work
# Excerpt: The detailed binding interface between IpCa and RyR1 is shown in Fig. 3, and putative interacting pairs of residues are shown in table S1. IpCa enters the vestibule of the channel and binds deep at the cytosolic side, adjacent to the transmembrane region. All RyR1 residues involved in binding are located in the cytosolic extensions of the inner S6 helices (S6ext) that line the permeation pathway. Equivalent residues of all four RyR1 subunits make different interactions with IpCa. The most extensive interface includes the side of IpCa that contains the 22–30 loop. It mostly consists of various ... || The structure is also in agreement with previous mutagenesis studies of calcins. For example, Arg^23 is conserved in all calcins and forms a likely salt bridge with RyR1 residue Asp^4945. […] Another study found a general importance of multiple charged IpCa residues to form a subconductance state in RyR1, with the largest effects found for substitutions in the 22–30 loop ([20]), which forms the most extensive interactions with RyR1. Thus, the structure appears to be in general agreement with known potencies of natura ... || A third tunnel with a smaller radius (~1.8 Å) can be found at the lateral opening near Arg^24 (“exit 3,” fig. S10D). The narrower radius, along with the presence of three positively charged residues at the constriction point, likely provides a sizeable energetic barrier. Thus, on the basis of minimum radius and electrostatic surface potential, exit 1 may form the most likely exit pathway for Ca^2+ ions.
# [4] = test system: rabbit RyR1; test: Cryo-EM of RyR1 incubated with calcin variant (density for peptide); assay type: binding; details: activating conditions (Ca2+, ATP, caffeine, CaM1234), incubation up to an hour
# Procedure: For activating conditions (datasets 3 to 5), RyR1 samples were diluted to contain 30 μM buffered free Ca^2+, 80 μM CaM1234, 5 mM caffeine, and 8 mM (dataset 3) or 5 mM (datasets 4 and 5) ATP. Purified IpCa (powder) was first diluted to 1 mM in buffer S5 without EGTA or Ca^2+ and then added to the RyR1 samples to a final concentration of 30 to 80 μM. Samples were incubated in the presence of IpCa (including pT26 and T26E) up to an hour before plunging. RyR1 particles from each condition were assessed by negative-stain EM. Four microliters of purified RyR1 diluted to 0.01 to 0.05 mg/ml was applied to glow-discharged 400-mesh copper grids (Electron Microscopy Sciences) and stained with 0.7% (w/v %) uranyl formate. Negatively stained EM grids were imaged on a Tecnai G2 Spirit microscope (Thermo Fisher Scientific) operated at 120 kV or a Talos with a Ceta camera operated at 120 kV.
# For cryo-EM, RyR1 samples with a final concentration of 10 to 12 mg/ml were used. The samples were applied to holey carbon R2/2 grids (Quantifoil). Grids were blotted for 3 s with −5 to −15 blot force applied and subsequently flash-frozen with liquid ethane using a Vitrobot IV (Thermo Fisher Scientific). Grids were transferred to a Titan Krios G2 electron microscope (Thermo Fisher Scientific) operating at 300 kV. […]
# [5] = molecular target: T2, mouse cAMP PKA catalytic subunit (PKAc, α isoform) (Mus musculus, UniProt P05132); test: ADP-Glo kinase assay, Michaelis-Menten kinetics of peptide phosphorylation; assay type: biochemical; details: peptide as PKA substrate, 25 nM PKAc, 1 mM ATP, 6 repeats
# T2 construct: His tag (inferred from HisTrap purification) (cleaved yes); made in house; host or cells: E. coli Rosetta (DE3) pLysI
# Procedure: (§1) PKAc was concentrated to 500 μM, aliquoted, and stored in kinase buffer containing 20 mM Hepes (pH 7.4), 150 mM KCl, 4 mM TCEP, 5 mM MgCl2, and 30% glycerol and stored at −70°C in 0.5-ml tubes prior for use in kinase assays. All ADP-Glo Max reagents (Promega) were thawed and brought to room temperature before use. Each 0.5-ml PKAc tube was thawed and diluted to 0.5 μM in the kinase buffer without the glycerol. Kemptide and IpCa substrates were diluted to 1 mM in kinase buffer (without glycerol) from 10 mM stock made from lyophilized powder. Using a twofold dilution series, substrate concentrations ranged from 512 to 0.5 μM. In addition, a reaction with no substrate was added for a total of 12 reactions using a 20-μl reaction volume. One microliter of ATP (from the ADP-Glo Max kit) was used to reach a final concentration of 1 mM ATP in the reaction volume. Reaction was started by adding 1 μl of PKAc to reach 25 nM for each reaction. All reactions were carried out at room temperature for 30 to 60 min. Duplicates of each reaction tube were plated on a Corning 384-well solid white polystyrene microplates (Thermo Fisher Scientific) and used for downstream detection and luminescence readings. The average values of each duplicate reaction were used as a single replicate. Thus, for the total of six replicates, 12 reactions were used. Readings are based on relative luminescence units, which are converted into moles of ATP hydrolyzed using an adenosine diphosphate–ATP standard curve according to manufacturer’s protocol (Promega). Each standard curve was run in duplicate where the average was used to calculate moles of ATP hydrolyzed in each kinase reaction. Luminescence readings were recorded from the microplate wells using a PerkinElmer Victor X4.
# (§2) A nonlinear regression Michaelis-Menten kinetics fitting function was used in GraphPad Prism 8.0 to calculate KM,Vmax, and Kcat values for the PKA-IpCa kinase assays. SEMs are reported for each data point as calculated in Prism. Figures and graphs were generated using PyMOL, ChimeraX, and Prism 8.0 unless otherwise noted. [^3H] Ryanodine binding data were fitted using nonlinear regression analysis in Origin 2018b software (Origin Lab). Hill’s equation was used to determine Bmax (maximum specific binding) and Kd ([…]). Statistical significance was determined at P < 0.05.
# [6] = test system: CC(C)C[C@@H]1NC(=O)[C@H](Cc2c[nH]cn2)NC(=O)[C@@H]2CCCN2C(=O)[C@H](CC(C)C)NC(=O)[C@@H](NC(=O)[C@H](CC(=O)O)NC(=O)CN)CSSC[C@@H]2NC(=O)[C@@H]3CSSC[C@@H](C(=O)N[C@@H](CCCNC(=N)N)C(=O)O)NC(=O)[C@H](CCCNC(=N)N)NC(=O)[C@H](CCCCN)NC(=O)[C@H](CCC(=O)O)NC(=O)[C@H](C)NC(=O)[C@H](CC(N)=O)NC(=O)[C@H]([C@@H](C)O)NC(=O)CNC(=O)[C@H](CCCNC(=N)N)NC(=O)[C@H](CCCNC(=N)N)NC(=O)[C@H](CCCCN)NC(=O)[C@H](CSSC[C@H](NC(=O)[C@H](CCCNC(=N)N)NC(=O)[C@H](CCCCN)NC1=O)C(=O)N[C@@H](CCCCN)C(=O)N[C@@H](C)C(=O)N[C@@H](CC(=O)O)C(=O)N[C@@H](CC(N)=O)C(=O)N[C@@H](CC(=O)O)C(=O)N3)NC(=O)[C@H](CCCCN)NC(=O)[C@H](CCCCN)NC(=O)CNC2=O; test: as above; assay type: biochemical, mouse; details: other: peptide as PKA substrate; 25 nM PKAc, 1 mM ATP, substrate 0.5-512 µM, room temperature 30-60 min, luminescence; 6 repeats; pH 7.4
# Procedure: as §1, §2
compound,measurement,setting,value
"CC(C)C[C@@H]1NC(=O)[C@H](Cc2c[nH]cn2)NC(=O)[C@@H]2CCCN2C(=O)[C@H](CC(C)C)NC(=O)[C@@H](NC(=O)[C@H](CC(=O)O)NC(=O)CN)CSSC[C@@H]2NC(=O)[C@@H]3CSSC[C@@H](C(=O)N[C@@H](CCCNC(=N)N)C(=O)O)NC(=O)[C@H](CCCNC(=N)N)NC(=O)[C@H](CCCCN)NC(=O)[C@H](CCC(=O)O)NC(=O)[C@H](C)NC(=O)[C@H](CC(N)=O)NC(=O)[C@H]([C@@H](C)O)NC(=O)CNC(=O)[C@H](CCCNC(=N)N)NC(=O)[C@H](CCCNC(=N)N)NC(=O)[C@H](CCCCN)NC(=O)[C@H](CSSC[C@H](NC(=O)[C@H](CCCNC(=N)N)NC(=O)[C@H](CCCCN)NC1=O)C(=O)N[C@@H](CCCCN)C(=O)N[C@@H](C)C(=O)N[C@@H](CC(=O)O)C(=O)N[C@@H](CC(N)=O)C(=O)N[C@@H](CC(=O)O)C(=O)N3)NC(=O)[C@H](CCCCN)NC(=O)[C@H](CCCCN)NC(=O)CNC2=O [IpCa, Imperacalcin] (H-GDCLPHLKRCKADNDCCGKKCKRRGTNAEKRCR-OH; disulfide 3-17, 10-21, 16-32)",EC50,[1],6 ± 2 nM
"CC(C)C[C@@H]1NC(=O)[C@H](Cc2c[nH]cn2)NC(=O)[C@@H]2CCCN2C(=O)[C@H](CC(C)C)NC(=O)[C@@H](NC(=O)[C@H](CC(=O)O)NC(=O)CN)CSSC[C@@H]2NC(=O)[C@@H]3CSSC[C@@H](C(=O)N[C@@H](CCCNC(=N)N)C(=O)O)NC(=O)[C@H](CCCNC(=N)N)NC(=O)[C@H](CCCCN)NC(=O)[C@H](CCC(=O)O)NC(=O)[C@H](C)NC(=O)[C@H](CC(N)=O)NC(=O)[C@H]([C@@H](C)OP(=O)(O)O)NC(=O)CNC(=O)[C@H](CCCNC(=N)N)NC(=O)[C@H](CCCNC(=N)N)NC(=O)[C@H](CCCCN)NC(=O)[C@H](CSSC[C@H](NC(=O)[C@H](CCCNC(=N)N)NC(=O)[C@H](CCCCN)NC1=O)C(=O)N[C@@H](CCCCN)C(=O)N[C@@H](C)C(=O)N[C@@H](CC(=O)O)C(=O)N[C@@H](CC(N)=O)C(=O)N[C@@H](CC(=O)O)C(=O)N3)NC(=O)[C@H](CCCCN)NC(=O)[C@H](CCCCN)NC(=O)CNC2=O [IpCa-pT26] (H-GDCLPHLKRCKADNDCCGKKCKRRG[pT]NAEKRCR-OH; disulfide 3-17, 10-21, 16-32)",EC50,"[1]; skeletal muscle heavy SR vesicles, mean ± SEM for n = 3 separate experiments, read-out: Median effective concentration for stimulation of [3H]ryanodine binding",42 ± 10 nM
Imperacalcin (from UniProt P59868 1-33) (peptide),[3H] ryanodine binding to skeletal muscle heavy SR vesicles against IpCa-WT concentration; median effective concentration,[2],6 nM
"IpCa R23E: IpCa with the R23E mutation, from previous mutagenesis study (GDCLPHLKRCKADNDCCGKKCKERGTNAEKRCR; ends and bridges not checked; cysteine pairing not given here; UniProt P59868 1-33, looked up, variant R23E)",Effect of mutation on potency,[3],drastically reduce potency
"IpCa-T26E: IpCa variant containing a phosphomimetic (T26E) (GDCLPHLKRCKADNDCCGKKCKRRGENAEKRCR; disulfide (positions not given here); not fully specified; ends not checked; UniProt P59868 1-33, looked up, variant T26E)",Effect on [3H]ryanodine binding,"[1]; skeletal muscle heavy SR vesicles, no phosphatase inhibitors",completely inert
same,Cryo-EM density for the peptide bound to RyR1,[4],failed to show any density for IpCa
LRRASLG [Kemptide],Vmax,[5]; room temperature,8.34 ± 0.40 µmol/min/mg
same,kcat,[5]; room temperature,4.62 ± 0.22 s⁻¹
same,Km,"[5]; substrate 0.5-512 µM, room temperature 30-60 min, luminescence",10.3 ± 2.16 µM
"mouse cAMP PKA catalytic subunit (PKAc, α isoform) (Mus musculus)",Km,[6],22.0 ± 3.40 µM
same,Vmax,[6],20.2 ± 0.93 µmol/min/mg
same,kcat,[6],11.2 ± 0.518 s⁻¹
same,kcat/Km,[6],508000 M⁻¹ s⁻¹
"opicalcin2: calcin differing from opicalcin1 only by Ala26 instead of Thr26 (GDCLPHLKRCKENNDCCSKKCKRRGANPEKRCR; ends and bridges not checked; cysteine pairing not given here; UniProt P60253 34-66, looked up)",Apparent affinity / potency,[3],can still bind with high potency
same,Difference in potency between opicalcin1 and opicalcin2,"[3]; opicalcin2 less potent, fig. S5, ref Xiao et al (2016)",~ 10 fold
